In the supplement of paper PMC10307832:

What was measured:
Test in all cases: relative viability (nuclei count vs DMSO), 5 days (fraction); higher = more cells survive
[1] = compound: CC(=O)Nc1cccc(-n2c(=O)n(C3CC3)c(=O)c3c(Nc4ccc(I)cc4F)n(C)c(=O)c(C)c32)c1 [Trametinib] + COc1cc2c(Oc3ccc(NC(=O)C4(C(=O)Nc5ccc(F)cc5)CC4)cc3F)ccnc2cc1OCCCN1CCOCC1 [Foretinib] (partner 0.25 µM)
Method in brief: (§1)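 Relative viability divides the nuclei count in treated wells by that in vehicle wells. Lung cancer cell lines were seeded in 1536-well plates, dosed by pin tool the next day, and fixed and stained after 5 days in one step with final 0.05% Triton X-100, 1% formaldehyde and 1 ug/ml Hoechst. Dosing was a single drug or a fixed anchor-drug dose plus five library-drug doses (not always all listed) in √10 steps, and values are medians of duplicate plates imaged at 4×.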

[2] = compound: CC(=O)Nc1cccc(-n2c(=O)n(C3CC3)c(=O)c3c(Nc4ccc(I)cc4F)n(C)c(=O)c(C)c32)c1 [Trametinib] + O=C(c1cc(Cc2n[nH]c(=O)c3ccccc23)ccc1F)N1CCN(C(=O)C2CC2)CC1 [Olaparib] (partner 8 µM)
Method in brief: as §1

[3] = compound: CN1C=C(C2=CC=CC=C21)/C=C\3/C4=C(C=CC=N4)NC3=O + C[C@]1(O)C[C@@H](c2nc(-c3ccc4ccc(-c5ccccc5)nc4c3)c3c(N)nccn32)C1 [Linsitinib] (partner 1 µM)
Method in brief: as §1

[4] = compound: CN1C=C(C2=CC=CC=C21)/C=C\3/C4=C(C=CC=N4)NC3=O + Nc1ncn([C@H]2C[C@H](O)[C@@H](CO)O2)c(=O)n1 [Decitabine] (partner 2 µM)
Method in brief: as §1

UMC-11
relative viability ([1]; first compound 0.0025 µM): 1 | relative viability ([1]; first compound 0.007906 µM): 1.03 | relative viability ([1]; first compound 0.025 µM): 0.997 | relative viability ([1]; first compound 0.07906 µM): 1.06 | relative viability ([1]; first compound 0.25 µM): 1.03 | relative viability ([2]; first compound 0.0025 µM): 0.547 | relative viability ([2]; first compound 0.007906 µM): 0.455 | relative viability ([2]; first compound 0.07906 µM): 0.303 | relative viability ([2]; first compound 0.25 µM): 0.29 | relative viability ([3]; first compound 0.02 µM): 0.68 | relative viability ([3]; first compound 0.06325 µM): 1 | relative viability ([3]; first compound 0.2 µM): 1.07 | relative viability ([3]; first compound 0.6325 µM): 1.1 | relative viability ([3]; first compound 2 µM): 1.18 | relative viability ([4]; first compound 0.02 µM): 0.604 | relative viability ([4]; first compound 0.06325 µM): 0.631 | relative viability ([4]; first compound 0.2 µM): 0.497 | relative viability ([4]; first compound 0.6325 µM): 0.395 | relative viability ([4]; first compound 2 µM): 0.646
